Structures can show the parent of a compound that is named as a salt.
Assays:
[1] = tested on: Purkinje fiber of the right ventricular free wall (myocardial action potential); assay: Influence on myocardial action potential duration time (APD75), isolated right ventricular free wall, microelectrode in Purkinje fiber; format: cell-based, dog; details: Canis lupus familiaris, 20 min, 20 minutes' incubation; for activation at 3 µg/mL: 3.0 μg/ml; for activation at 3 µg/mL / activation at 10 µg/mL / activation at 1 µg/mL: (B-A)/A×100, read-out: APD75 (%); for activation at 10 µg/mL: 10.0 μg/ml; for activation at 1 µg/mL: 1.0 μg/ml
[2] = Toxicity test, mortality rate 24 hours after administration; details: mouse, in vivo
Description: Each of the compounds prepared in the above-mentioned examples was administered into a mouse (ddY strain, male). In each case, oral administration (p.o.) and intra peritoneal administration (i.p.) were separately carried out in a dose of 300 mg/kg and 250 mg/kg, respectively.
A mortality rate (number of specimens: one group=2 to 4 mice) of the mice 24 hours after the administration was calculated, and the results are set forth in Table 3.
Following the same procedure as in Toxicity Test 1, toxicity of the respective compounds prepared in the above examples in Table 5 was tested to calculate a mortality rate of mice.
Administration was made by oral administration (p.o.) in an amount of 300 mg/kg of each compound for one mouse.
Following the same procedure as in Toxicity Test 1, toxicity of the respective compounds prepared in the above examples in Table 7 was tested to calculate a mortality rate of mice.

[3] = tested on: ventricular muscle refractory period; assay: Influence on ventricular muscle refractory period (ERP); format: in vivo, mongrel dog; details: Canis lupus familiaris, iv, i.v., (W-Y)/Y×100, read-out: ERP (%; extensibility of refractory period)
Description: (2) Influence on ventricular muscle refractory period Refractory periods were measured in the following manner before and after each of the compounds and d-sotalol shown in Table 2 was separately administered to a vein or a duodenum, and ERP (%; extensibility of refractory period) was calculated from the measured values: ERP (%)=(W-Y)/Y×100 W: Refractory period after administration Y: Refractory period before administration To a mongrel adult dog, 30 mg/kg of pentobarbital was administered intravenously, and after being anesthetized, a pair of silver-silver chloride electrodes separated by 3 mm was sewn on an opened right ventricule, and electrical stimulation was given at an interval of 400 msec at a duration time of 4 msec under a current twice as much as the threshold. Afterward, a small amount of alcohol was injected into a sinus artery in order to extinguish a pacemaker activity, and the ventricular refractory period (ERP) was measured under ventricule pacing. That is, each 1 train comprised 10 stimulations having intervals of 400 msec, and an interval between the trains was usually 400 msec. However, this interval was shortened 10 msec by 10 msec at the time of the refractory period measurement, and an interval between the trains at the time when reaction to the first stimulation of the train disappeared was regarded as the refractory period. In this case, the electrical stimulation was fed in accordance with a program by a heart stimulation device (Diamedical Co., Ltd.; DHM-226-3).

SMILES: Cn1c(N2CCN(CCCCOc3ccc([N+](=O)[O-])cc3)CC2)cc(=O)n(C)c1=O [Compound 54, 1,3-dimethyl-6-{4-[4-(4-nitrophenoxy)butyl]piperazin-1-yl}-2,4(1H,3H)-pyrimidinedione hydrochloride]
- activation at 3 µg/mL [1]: 15%
- activation at 10 µg/mL [1]: 26%
- mortality at 24 h ([2]; po, 300 mg/kg (p.o.)): 0%

SMILES: Cn1c(N2CCN(CCc3ccc([N+](=O)[O-])cc3C(=O)c3ccccc3)CC2)cc(=O)n(C)c1=O [Compound 133, 1,3-dimethyl-6-(4-[2-(2-benzoyl-4-nitrophenyl)ethyl]piperazin-1-yl)-2,4(1H,3H)-pyrimidinedione oxalate]
- mortality at 24 h ([2]; po, 300 mg/kg (p.o.)): 0%
- change in vivo at 0.1 mg/kg [3]: 6.3%
- change in vivo at 0.3 mg/kg [3]: 6.3%
- change in vivo at 1 mg/kg [3]: 18.8%

SMILES: CCN(CCNc1ccc([N+](=O)[O-])cc1)CCNc1cc(=O)n(C)c(=O)n1C [Compound 71, 1,3-dimethyl-6-{2-[N-ethyl-2-(4-nitroanilino)ethylamino]ethylamino}-2,4(1H,3H)-pyrimidinedione oxalate]
- activation at 1 µg/mL [1]: 8%
- activation at 3 µg/mL [1]: 15%
- activation at 10 µg/mL [1]: 17%
- mortality at 24 h ([2]; po, 300 mg/kg (p.o.)): 0%
- change in vivo at 0.1 mg/kg [3]: 6.7%
- change in vivo at 0.3 mg/kg [3]: 7.7%
- change in vivo at 1 mg/kg [3]: 13.4%
- change in vivo at 3 mg/kg [3]: 16.6%

SMILES: Cn1c(N2CCN(CCCOc3ccc([N+](=O)[O-])cc3Cl)CC2)cc(=O)n(C)c1=O [Compound 141, 1,3-dimethyl-6-{4-[3-(2-chloro-4-nitrophenyloxy)propyl]piperazin-1-yl}-2,4(1H,3H)-pyrimidinedione hydrochloride]
- activation at 1 µg/mL [1]: 27%
- activation at 3 µg/mL [1]: 41%
- mortality at 24 h ([2]; po, 300 mg/kg (p.o.)): 0%
- change in vivo at 0.1 mg/kg [3]: 0%
- change in vivo at 0.3 mg/kg [3]: 2.1%
- change in vivo at 1 mg/kg [3]: 2.1%
- change in vivo at 3 mg/kg [3]: 15%

SMILES: Cn1c(NCCNC(=O)c2ccc([N+](=O)[O-])cc2)cc(=O)n(C)c1=O [Compound 56, 1,3-dimethyl-6-[2-(4-nitrobenzoylamino)ethylamino]-2,4(1H,3H)-pyrimidinedione]
- mortality at 24 h ([2]; po, 300 mg/kg (p.o.)): 50%
- change in vivo at 0.1 mg/kg [3]: 6.7%
- change in vivo at 0.3 mg/kg [3]: 6.7%
- change in vivo at 1 mg/kg [3]: 6.7%

SMILES: Cn1c(N2CCN(CCCOc3cc([N+](=O)[O-])ccc3O)CC2)cc(=O)n(C)c1=O [Compound 145, 1,3-dimethyl-6-{4-[3-(2-hydroxy-5-nitrophenyloxy)propyl]piperazin-1-yl}-2,4(1H,3H)-pyrimidinedione hydrochloride]
- activation at 1 µg/mL [1]: 7%
- activation at 3 µg/mL [1]: 16%
- activation at 10 µg/mL [1]: 23%
- mortality at 24 h ([2]; po, 300 mg/kg (p.o.)): 0%
- change in vivo at 0.1 mg/kg [3]: 0%
- change in vivo at 0.3 mg/kg [3]: 6.7%
- change in vivo at 1 mg/kg [3]: 6.7%
- change in vivo at 3 mg/kg [3]: 20%

SMILES: Cn1c(N2CCN(CCCCc3ccc([N+](=O)[O-])cc3)CC2)cc(=O)n(C)c1=O [Compound 34, 1,3-dimethyl-6-{4-[4-(4-nitrophenyl)butyl]piperazine-1-yl}-2,4(1H,3H)-pyrimidinedione hydrochloride]
- activation at 3 µg/mL [1]: 17%
- activation at 10 µg/mL [1]: 25%
- mortality at 24 h ([2]; po, 300 mg/kg (p.o.)): 100%
- change in vivo at 0.1 mg/kg [3]: 6%
- change in vivo at 0.3 mg/kg [3]: 12%
- change in vivo at 1 mg/kg [3]: 12%
- change in vivo at 3 mg/kg [3]: 18%

SMILES: Cn1c(N2CCN(CCCOc3ccc([N+](=O)[O-])cc3C(=O)c3ccccc3Cl)CC2)cc(=O)n(C)c1=O [Compound 105, 1,3-dimethyl-6-{4-<3-[2-(2-chlorobenzoyl)-4-nitrophenoxy]propyl>piperazin-1-yl}-2,4(1H,3H)-pyrimidinedione oxalate]
- activation at 1 µg/mL [1]: 11%
- activation at 3 µg/mL [1]: 23%
- activation at 10 µg/mL [1]: 28%
- mortality at 24 h ([2]; po, 300 mg/kg (p.o.)): 0%
- change in vivo at 0.1 mg/kg [3]: 0%
- change in vivo at 0.3 mg/kg [3]: 0%
- change in vivo at 1 mg/kg [3]: 6.3%
- change in vivo at 3 mg/kg [3]: 6.3%

SMILES: Cn1c(N2CCN(CCCOc3ccc([N+](=O)[O-])cc3C(=O)c3ccccc3)CC2)cc(=O)n(C)c1=O [Compound 80, 1,3-dimethyl-6-{4-[3-(2-benzoyl-4-nitrophenoxy)propyl]piperazin-1-yl}-2,4(1H,3H)-pyrimidinedione oxalate]
- activation at 1 µg/mL [1]: 19%
- activation at 3 µg/mL [1]: 30%
- activation at 10 µg/mL [1]: 34%
- mortality at 24 h ([2]; po, 300 mg/kg (p.o.)): 0%
- change in vivo at 0.1 mg/kg [3]: 2.6%
- change in vivo at 0.3 mg/kg [3]: 9.7%
- change in vivo at 1 mg/kg [3]: 21.9%

SMILES: Cn1c(N2CCN(Cc3ccc([N+](=O)[O-])cc3C(=O)c3ccccc3)CC2)cc(=O)n(C)c1=O [Compound 134, 1,3-dimethyl-6-{4-[(2-benzoyl-4-nitrophenyl)methyl]piperazin-1-yl}-2,4(1H,3)-pyrimidinedione oxalate]
- mortality at 24 h ([2]; po, 300 mg/kg (p.o.)): 0%

SMILES: Cn1c(N2CCN(CCCOc3c(Cl)cc([N+](=O)[O-])cc3Cl)CC2)cc(=O)n(C)c1=O [Compound 165, 1,3-dimethyl-6-{4-[3-(2,6-dichloro-4-nitrophenyloxy)propyl]piperazin-1-yl}-2,4(1H,3H)-pyrimidinedione hydrochloride]
- mortality at 24 h ([2]; po, 300 mg/kg (p.o.)): 0%

SMILES: CCOC(=O)CN(CCCc1ccc([N+](=O)[O-])cc1)CCNc1cc(=O)n(C)c(=O)n1C [Compound 175, 1,3-dimethyl-6-{2-[N-ethoxycarbonylmethyl-3-(4-nitrophenyl)propylamino]ethylamino}-2,4(1H,3H)-pyrimidinedione oxalate]
- activation at 1 µg/mL [1]: 8%
- activation at 3 µg/mL [1]: 16%
- mortality at 24 h ([2]; po, 300 mg/kg (p.o.)): 0%

SMILES: Cn1c(NCCN(CCO)CCCc2ccc([N+](=O)[O-])cc2)cc(=O)n(C)c1=O [Compound 8]
- activation at 0.3 µg/mL ([1]; 0.3 μg/ml, (B-A)/A×100): 16%
- activation at 1 µg/mL [1]: 22%
- activation at 3 µg/mL [1]: 38%
- mortality at 24 h ([2]; ip, 250 mg/kg (i.p.)): 0%
- mortality at 24 h ([2]; po, 300 mg/kg (p.o.)): 0%
- change in vivo at 0.1 mg/kg [3]: 0%
- change in vivo at 0.3 mg/kg [3]: 10.7%
- change in vivo at 1 mg/kg [3]: 21.4%
- change in vivo at 3 mg/kg [3]: 14.2%

SMILES: CCN(CCNCCCCc1ccc([N+](=O)[O-])cc1)c1cc(=O)n(C)c(=O)n1C [Compound 26, 1,3-dimethyl-6-{N-ethyl-N-<2-[4-(4-nitrophenyl)butylamino]ethyl>amino}-2,4(1H,3H)-pyrimidinedione oxalate]
- activation at 1 µg/mL [1]: 20%
- activation at 3 µg/mL [1]: 30%
- activation at 10 µg/mL [1]: 35%
- mortality at 24 h ([2]; ip, 250 mg/kg (i.p.)): 50%
- mortality at 24 h ([2]; po, 300 mg/kg (p.o.)): 0%
- change in vivo at 0.1 mg/kg [3]: 6.5%
- change in vivo at 0.3 mg/kg [3]: 6.5%
- change in vivo at 1 mg/kg [3]: 6.5%
- change in vivo at 3 mg/kg [3]: 6.5%

SMILES: COC(=O)CN(CCCNc1ccc([N+](=O)[O-])cc1)CCNc1cc(=O)n(C)c(=O)n1C [Compound 166, 1,3-dimethyl-6-{2-[N-methoxycarbonylmethyl-3-(4-nitroanilino)propylamino]ethylamino}-2,4(1H,3H)-pyrimidinedione hydrochloride]
- activation at 1 µg/mL [1]: 8%
- activation at 3 µg/mL [1]: 18%
- mortality at 24 h ([2]; po, 300 mg/kg (p.o.)): 0%
- change in vivo at 0.1 mg/kg [3]: 6.7%
- change in vivo at 0.3 mg/kg [3]: 6.7%
- change in vivo at 1 mg/kg [3]: 6.7%
- change in vivo at 3 mg/kg [3]: 6.7%

SMILES: Cn1c(NCCN(CCO)CCCCc2ccc([N+](=O)[O-])cc2)cc(=O)n(C)c1=O [Compound 23]
- activation at 1 µg/mL [1]: 18%
- activation at 3 µg/mL [1]: 35%
- activation at 10 µg/mL [1]: 39%
- mortality at 24 h ([2]; po, 300 mg/kg (p.o.)): 0%

SMILES: CCN(CCCCc1ccc([N+](=O)[O-])cc1)CCNc1cc(=O)n(C)c(=O)n1C [Compound 22]
- mortality at 24 h ([2]; ip, 250 mg/kg (i.p.)): 50%
- mortality at 24 h ([2]; po, 300 mg/kg (p.o.)): 0%

SMILES: Cn1c(NCCNc2ccc([N+](=O)[O-])cc2C(=O)c2ccccc2)cc(=O)n(C)c1=O [Compound 131, 1,3-dimethyl-6-[2-(2-benzoyl-4-nitroanilino)ethylamino]-2,4(1H,3H)-pyrimidinedione oxalate]
- mortality at 24 h ([2]; po, 300 mg/kg (p.o.)): 0%

SMILES: Cn1c(N2CCN(CCOc3ccc(C(=O)c4ccccc4)cc3[N+](=O)[O-])CC2)cc(=O)n(C)c1=O [Compound 103]
- mortality at 24 h ([2]; po, 300 mg/kg (p.o.)): 0%

Reference: patent US5008267A, “Pyrimidinedione compounds, method of producing the same and antiarrythmic agents containing the same” (Mitsui Toatsu Chemicals, Incorporated, priority 1988, dated 1991)
